Measurements published in US8470964B2, “Peptides derived from NCAM (FGLs)” (Enkam Pharmaceuticals A/S, priority 2007, dated 2013).
“And” between values parts separate entries of the source, which are not always exact repeats. Equal values may be shown once. “Also recorded” adds a separate entry of the source. Where no end group is shown, it is not given here.

Assays:
[1] = test system: primary cerebellar granule rat cells (CGC); assay: Neurite outgrowth of cerebellar granule neurons; assay type: cell-based; details: CGC from 7-day old Wistar rats, 24 hrs; bell-shaped dose response
Description: FIG. 2. Effects of FGLs on neurite outgrowth of early postnatal rat cerebellar neurons. CGCs were prepared from 7-day old Wistar rats and plated on uncoated eight-well Lab-Tek® chamber The peptide was added to the medium immediately after plating, and cells were maintained at 37° C., 5% CO2 for 24 hrs. CGC cultures were fixed in 4% and then immunostained against rat GAP-43. Neurite outgrowth was determined by image analysis of 200±20 neurons in each individual experiment. The length of neuronal processes per cell was estimated stereologically. The results are given as mean values±SEM from at least three independent experiments and illustrated as percentage of control values. *p<0.05 when compared with control by paired t-test.
This study investigated the effect of FGLs on neurite outgrowth of dissociated primary cerebellar granule rat cells (CGC) cultured in vitro.
Efficacy is found over a range of concentrations corresponding to that of target (FGFR) activation and follows the same bell-shaped dose-response.

[2] = test system: scopolamine induced social amnesia model in adult rats; assay: Scopolamine induced social amnesia model (SRT); assay type: in vivo, rat; details: 8 mg/kg s.c. twice, 19 hours interval
Description: FIG. 7. Effects of subcutaneous administration of FGLL FGLs, and VEB1 (2 administrations with a 19 hours interval, at 8 mg/kg) on the scopolamine induced social amnesia as evaluated in the Social Recognition Test (SRT). The rats were tested with the initial trial of SRT performed 5 h after the last administration of peptide/vehicle and 30 minutes after scopolamine (0.01 mg/kg s.c.) administration. The juvenile rat was presented twice with an inter-trial interval of 15 minutes.
A—Recognition ratios (RR) of rats treated with scopolamine and vehicle (Veh) or scopolamine and one of the three peptides as detailed above. Results are shown as Mean and SEM of recognition ratio (RR). […] Comparisons of RR values to a hypothetical value 0.50 were carried out using one-sample t-test. In each experimental group data were obtained from 10 rats.
B—Cumulative investigation time (T1, in seconds) during the first trial of the SRT of rats treated with scopolamine and vehicle (Veh) or scopolamine and one of the three peptides as detailed above. Results are shown as Mean and SEM of T1. Comparison between groups were carried out by ANOVA followed by Dunnett Multiple Comparison Test. In each experimental group data were obtained from 10 rats.
FGLs was tested for efficacy in the scopolamine induced social amnesia model in adult rats (Van Kampen et al., 2004). […]

[3] = Visual appearance of peptide diluted in water; assay type: physicochemical; details: 100 mg/ml in water, room temperature
Description: FIG. 11. Visual appearance of FGLL and FGLs. 100 mg of FGLL and FGLs, respectively were diluted in 1 ml water at room temperature for visual inspection.
FGFL and FGFs were diluted in water at a concentration of 100 mg/ml for visual inspection (FIG. 11). […] In another experiment were 5 mg of FGLL and FGLs respectively diluted in 1 ml water or PBS at room temperature. Light microscopy pictures of the water and PBS solutions of FGLL and FGLs can be seen in FIG. 12. In FIG. 13. is a 90° light-scattering spectra of 100 mg/ml FGFL and FGLs in water showing the difference in intensity between the FGF L and the FGLs, solution.

intact adult rats = assay: Social Recognition Test (SRT), short-term social memory, subcutaneous administration; assay type: in vivo, rat
Description: (§1) FIG. 3. Effects of a single administration of vehicle or of FGLs on short-term social memory as evaluated in the Social Recognition Test (SRT). FGLs (8.0 mg/kg) or vehicle (sterile water, 4.0 ml/kg) was administered s.c. and the rats were tested twice with the initial trial of SRT performed 1 h and 73 h after administration. The juvenile rat was presented twice with an inter-trial interval of 2 hours. In each experimental group data were obtained from 9 to 11 rats. Results are shown as Mean and SEM of recognition ratio (RR). […] Comparisons of RR values to a hypothetical value 0.50 were carried using one-sample t-test. **P<0.01.
as §1, with “4.” for “3.”, “(1.0, 2.0, 4.0 and 8.0” for “(8.0”, “24” for “73”
FIG. 5. Effects of subcutaneous administration of FGLs, FGLL and VEB1 (2 administrations at the stated doses) on short-term social memory as evaluated in the Social Recognition Test (SRT). Results are shown as Mean and SEM of recognition ratio (RR). […] Comparisons of RR values to a hypothetical value 0.50 were carried using one-sample t-test.
The activity of FGLs, administered subcutaneously, in enhancing social memory in intact adult rats was examined in three studies. In both studies the test system was the Social Recognition Test (SRT), which is a reliable test for the evaluation of compounds active on short-term memory (Dantzer et al., 1987). In our studies we used a protocol of SRT were a juvenile rat was presented to the test rat twice, with an inter-trial interval (ITI) of 2 hours between the two tests. […] In the first study the rats received a single subcutaneous dose (8.0 mg/kg) of FGLs and were tested 1 hour and 73 hours after administration.
In the second study the rats received a single subcutaneous dose of 1.0, 2.0, 4.0 or 8.0 mg/kg of FGLs and were tested 1 hour and 24 hours after administration.
In the third study the dose response effects (0.25, 0.80, 2.50 and 8.0 mg/kg) of subcutaneous administration of FGLs were tested. In parallel were also tested FGLL and VEB1, another truncated form of FGLL. The peptides were administered twice, 24 and 5 hours before the first SRT, and the rats were tested 5 hour and 77 hours after the last administration

[4] = s.c., administered twice, 77 hours after the last administration

In the case of “FGLs: two identical 11 amino acid peptides (VAENQQGKSKA), forming a dimer through a linker molecule (iminodiacetic acid); peptide amide (VAENQQGKSKA-NH2; not fully specified; also: dimer of two identical peptides through iminodiacetic acid linker, attachment site not given here)”, the “concentration range with neurite outgrowth promoting activity” value [1] is reported as 5 to 25 µg/mL, the “cumulative investigation time at the first encounter (T1) versus scopolamine and vehicle” value ([2]; scopolamine 0.01 mg/kg s.c.) is reported as “significantly longer T1 than rats treated with vehicle; also recorded: significant difference in the cumulative investigation time at the first encounter” and the “recognition ratio (RR) versus theoretical value 0.5 in scopolamine treated rats” value ([2]; test 5 h after last dose, 30 minutes after scopolamine 0.01 mg/kg s.c.) is reported as “Significant effects against scopolamine induced social amnesia; also recorded: RR significantly different from the theoretical value of 0.5”. The “visual appearance of solution” value [3] was “remained clear”, the “duration of mnemotropic effects after administration” value (intact adult rats; s.c. administration, short-term social memory) was “at least 72 hours” and the “minimum effective dose in SRT” value (intact adult rats; s.c., administered twice (24 and 5 hours before first SRT), 5 hours post administration, intact rats) was 0.80 mg/kg and 0.8 mg/kg. The “dose with significant social memory enhancing effect in SRT” value (intact adult rats; [4]) was 2.50 mg/kg, the “social memory enhancing effect in SRT” value (intact adult rats; [4]) was “Significant memory enhancing effects” and the “memory enhancing effect in SRT (recognition ratio)” value (intact adult rats; single s.c. dose 8.0 mg/kg, tested 1 hour after administration, inter-trial interval 2 hours) was “significant memory enhancing effect”. The “memory enhancing effect in SRT (recognition ratio)” value (intact adult rats; single s.c. dose 8.0 mg/kg, tested 73 hours after administration, inter-trial interval 2 hours) was “tendency to significance (p=0.06)”, the “memory enhancing effect in SRT (recognition ratio)” value (intact adult rats; single s.c. dose 2.0, 4.0 and 8.0 mg/kg, 1 hour post administration) was “significant memory enhancing effect” and the “memory enhancing effect in SRT (recognition ratio)” value (intact adult rats; single s.c. dose 4.0 and 8.0 mg/kg, 24 hours after administration) was “significant memory enhancing effect”.
